Source: paper PMC11249646, “Small-Molecule Disruptors of the Interaction between Calcium- and Integrin-Binding Protein 1 and Integrin αIIbβ3 as Novel Antiplatelet Agents” (ACS Pharmacology & Translational Science, 2024)
Read-outs that look alike come from different tables or passages of the source.

Tests used:
[1] = target: T1, CIB1 and αIIb interaction (CIB1-GST : F-αIIb peptide) (Homo sapiens, UniProt Q99828); assay: FP assay, 1536-well qHTS format (primary and confirmatory screen); type: binding; settings: for Curve Class (confirmatory screen): qHTS curve class
T1 construct: made in house; host or cells: BL-21 plus RIL cells (E. coli)
T1 sequence (Q99828 1-191): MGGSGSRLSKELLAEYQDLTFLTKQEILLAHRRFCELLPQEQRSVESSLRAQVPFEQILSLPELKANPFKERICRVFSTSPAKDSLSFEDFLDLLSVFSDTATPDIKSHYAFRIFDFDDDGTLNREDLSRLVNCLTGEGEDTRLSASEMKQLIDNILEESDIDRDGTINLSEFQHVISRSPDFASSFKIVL

[2] = target: T2, GST-CIB1 : F-scrambled peptide (Homo sapiens, UniProt Q99828); assay: FP scrambled-peptide counter screen, 1536-well format; type: binding; settings: for Curve Class (counterscreen): qHTS curve class; for IC50: read-out: IC50 [μM] (counterscreen); for Confirm? (counterscreen): YES/NO
T2 construct: made in house; host or cells: BL-21 plus RIL cells (E. coli)
T2 sequence (Q99828 1-191): T1 sequence (Q99828 1-191)

[3] = Table S3, confirmatory screen, a negative sign marks inhibitory curves
[4] = Table S3, confirmatory screen, negative = inhibition
[5] = qHTS primary screen hits, Table S2, negative = inhibition
[6] = qHTS primary screen hits, Table S2, negative sign = inhibitory curve
[7] = qHTS primary screen hits, Table S2, read-out: IC50
[8] = Table S3, counterscreen, a negative sign marks inhibitory curves
[9] = Table S3, counterscreen, negative = inhibition
[10] = confirmatory screen, negative sign = inhibitory curve
[11] = confirmatory screen, read-out: IC50 [μM] (confirmatory screen)
[12] = qHTS FP screen hits, Table S2, negative = inhibition
[13] = qHTS FP screen hits, Table S2, one class per curve where COUNT > 1, negative sign = inhibitory curve
[14] = qHTS FP screen hits, Table S2, read-out: IC50
[15] = counterscreen, negative sign = inhibitory curve
[16] = qHTS primary screen hits, Table S2, negative sign = inhibitory curve, several classes where COUNT > 1

Structure (SMILES) | Curve Class (confirmatory screen) [1, 3] | Efficacy (%) (confirmatory screen) [1, 4] | Efficacy (%) [1, 5] [%] | Curve Class (counterscreen) [2, 8] | Efficacy (%) (counterscreen) [2, 9] | Efficacy (%) (confirmatory screen) ([1]; confirmatory screen) | Confirm? (confirmatory screen) ([1]; confirmatory screen, YES/NO) | Curve Class (confirmatory screen) [1, 10] | IC50 [1, 11] [µM] | Efficacy (%) [1, 12] [%] | Curve Class [1, 13] | IC50 [1, 14] [µM] | Efficacy (%) (counterscreen) ([2]; counterscreen) | Curve Class (counterscreen) [2, 15] | IC50 ([2]; counterscreen) [µM] | Curve Class [1, 16] | IC50 [1, 7] [µM] | further results
C[n+]1cc2c3c(ccc2c2ccc4cc5c(cc4c21)OCO5)OCO3.[Cl-] [NCGC00015959-09] | 4 | 0 | -124 | 4 | 0 | – | – | – | – | – | – | – | – | – | – | – | 14.1 | Curve Class [1, 6]: -1.1
CCCCCCCCCCCCCCCC[N+](C)(C)CCN(Cc1ccc(OC)cc1)c1ncccn1.[Br-] [NCGC00016507-05] | 4 | -36 | -71 | 3 | 100 | – | – | – | – | – | – | – | – | – | – | – | 79.4 | Curve Class [1, 6]: -2.2; IC50 ([2]; Table S3, counterscreen): 89.1 µM
COc1ccc2[nH]c([S+]([O-])Cc3ncc(C)c(OC)c3C)nc2c1 (centres unmarked) [NCGC00016925-10] | -1.2 | -58 | -35 | -2.2 | -57 | – | – | – | – | – | – | – | – | – | – | -2.2 | 10.8 | Confirm? (confirmatory screen) ([1]; Table S3, confirmatory screen, YES/NO call): YES; IC50 ([1]; Table S3, confirmatory screen, read-out: IC50 [μM] (confirmatory screen)): 28.2 µM; IC50 ([2]; Table S3, counterscreen): 35.5 µM
O=c1cc(-c2ccccc2)oc2cc(O)c(O)c(O)c12 [NCGC00017236-08] | – | – | -30 | – | – | -112 | – | – | 39.8 | – | – | – | -64 | – | 39.8 | – | 34.1 | –

Now from value to compound, other results behind:

Curve Class (confirmatory screen) [1, 3] | Efficacy (%) (confirmatory screen) [1, 4] | Efficacy (%) [1, 5] [%] | Curve Class (counterscreen) [2, 8] | Efficacy (%) (counterscreen) [2, 9] | Efficacy (%) (confirmatory screen) ([1]; confirmatory screen) | Confirm? (confirmatory screen) ([1]; confirmatory screen, YES/NO) | Curve Class (confirmatory screen) [1, 10] | IC50 [1, 11] [µM] | Efficacy (%) [1, 12] [%] | Curve Class [1, 13] | IC50 [1, 14] [µM] | Efficacy (%) (counterscreen) ([2]; counterscreen) | Curve Class (counterscreen) [2, 15] | IC50 ([2]; counterscreen) [µM] | Curve Class [1, 16] | Structure (SMILES) | IC50 [1, 7] [µM] | further results
– | – | – | – | – | -57 | YES | -2.2 | 35.5 | -37 | -2.2 | 50.1 | -37 | -1.2 | 22.4 | – | Cl.N=C(NCCCCCCNC(=N)NC(=N)Nc1ccc(Cl)cc1)NC(=N)Nc1ccc(Cl)cc1 [NCGC00016246-13] | – | –
– | – | – | – | – | -56 | YES | -2.4 | 44.7 | -28 | -1.2 | 1.3 | 0 | 4 | – | – | C=C(CC)C(=O)c1ccc(OCC(=O)O)c(Cl)c1Cl [NCGC00016260-13] | – | Confirm? (counterscreen) ([2]; counterscreen): YES
4 | -27 | -58 | – | 154 | – | – | – | – | – | – | – | – | – | – | -2.2 | Nc1ccc(O)c(C(=O)O)c1 [NCGC00016344-07] | – | –
– | – | – | – | – | -52 | YES | -3 | 79.4 | -59 | -3 | 28.2 | -33 | -2.4 | 70.8 | – | CN(C(=O)CN(CCO)CC(=O)N(C)C(C)(C)Cc1ccccc1)C(C)(C)Cc1ccccc1 [NCGC00016382-07] | – | –
– | – | – | – | – | -126 | YES | -2.1 | 44.7 | -75 | – | 36.4 | -32 | -2.4 | 63.1 | – | CN1C[C@H](CNC(=O)OCc2ccccc2)C[C@@H]2c3cccc4c3c(cn4C)C[C@H]21 [NCGC00017257-10] | – | Confirm? (counterscreen) ([2]; counterscreen): YES
– | – | -32 | – | – | -66 | YES | -1.2 | – | – | – | – | -61 | -1.2 | – | -2.2 | O=C(O)c1cc(O)c2c(c1)C(=O)c1cccc(O)c1C2=O [NCGC00018199-06] | – | –
